This is an account of results in article PMC7582876, “Antiproliferative Properties of a Few Auranofin-Related Gold(I) and Silver(I) Complexes in Leukemia Cells and their Interferences with the Ubiquitin Proteasome System” (Molecules, 2020).

Assay [1] deals with T1, bovine pancreatic α-chymotrypsin (Bos taurus, UniProt P00766).
T1 construct: from tissue; host or cells: bovine pancreas (from the enzyme's name only)
As to the kind of experiment: Bovine pancreatic α-chymotrypsin inhibition screening. In kind it is biochemical. The following applies: over 10 min. The method, then: 20S proteasome, isolated and purified from human erythrocytes, was obtained from a commercial source (Biomol GmbH, Hamburg, Germany), as well as the peptidic substrates (Bachem, Bubendorf, Switzerland) Suc-Leu-Leu-Val-Tyr-AMC, Boc-Leu-Arg-Arg-AMC and Cbz-Leu-Leu-Glu-AMC for ChT-L, T-L and PGPH (C-L) activity of the enzyme, respectively. The three distinct proteolytic activities of the 20S proteasome were measured by monitoring the hydrolysis of the substrates and detecting the fluorescence of the common product released, i.e., 7-amino-4-methyl coumarin (7-AMC), by means of an Infinite 200 PRO microplate reader (Tecan, Männedorf, Switzerland) at 30 °C with a 380-nm excitation filter and a 460-nm emission filter. All gold and silver complexes were tested against the three proteolytic activities of the 20S proteasome and against Cat-B, Cat-L and bovine pancreatic α-chymotrypsin at 10 µM concentrations over a period of 10 min using an equivalent amount of DMSO as a negative control. […]. The IC50 values were calculated with the program GraFit® using the two-parameter equation. More detailed experimental protocols for the assays against each proteolytic activity of the 20S proteasome, as well as against bovine pancreatic α-chymotrypsin, are already reported elsewhere (see also Supplementary Materials). Cat-B and Cat-L were purchased from Calbiochem, Darmstadt, Germany, and the related assays were performed as previously described. The employed fluorogenic substrate for both cysteine proteases was Cbz-Phe-Arg-AMC (80 µM for Cat-B; 5 µM for Cat-L).
Assay for Bovine Pancreatic α-Chymotrypsin Inhibition
The enzyme ([…]) was incubated at 20 °C with the test compound present at 10
µM (screening assay). The reaction buffer consisted of 50 mM Tris buffer pH 8.0
containing 100 mM NaCl, 5 mM EDTA and 7.5% DMSO. Product release from substrate
hydrolysis ([…] final concentration, Suc-Leu-Leu-Val-Tyr-AMC from Bachem) was
determined over a period of 10 min. […]

Assay [2] has as its system CCRF-CEM cells. Briefly: Resazurin cytotoxicity assay, drug-sensitive CCRF-CEM leukemia cells. In kind it is cell-based, human. As to conditions: cell growth, 72 h incubation, IC50 ± SD, n = 3. Here is the method:
Drug-sensitive CCRF-CEM and multidrug-resistant (MDR) P-glycoprotein (P-gp)-over-expressing CEM/ADR5000 leukemic cells were kindly provided by Prof. Axel Sauerbrey (Department of Pediatrics, University of Jena, Germany). Cells were cultured in RPMA1640 medium including 10% fetal bovine serum (FBS) and 1% penicillin (1000 U/mL)/streptomycin (100 µg/mL) (Life Technologies, Darmstadt, Germany). Doxorubicin (5000 ng/mL) was added to maintain overexpression of P-gp (MDR1 and ABCB1) in CEM/ADR5000 cells. Doxorubicin was obtained from the University Pharmacy of the University Medical Center Mainz. CEM/ADR5000 cells display a more than 1000-fold resistance to doxorubicin [27] and are therefore a suitable model to identify novel drugs without or very low cross-resistance.
The cytotoxic effects of the compounds solved in DMSO (Sigma-Aldrich, Taufkirchen, Germany) were tested by the resazurin assay. This assay is based on reduction of the indicator dye, resazurin, to the highly fluorescent resorufin by viable cells. Cells lethally damaged by cytotoxic compounds rapidly lose the enzymatic capability to reduce non-fluorescent resazurin to the highly fluorescent resorufin. As the reductive potential happens in a dose-dependent manner, this chemical reaction can be exploited to quantitatively determine the cytotoxic potential of investigational compounds and to measure dose-response relationships. With increasing concentrations of a cytotoxic drug, the fluorescence signal fades out. Aliquots of 10,000 cells/100 µL cells were seeded into 96-well plates (Thermo-Scientific, Dreieich, Germany) and immediately treated with various concentrations of each compound. After 72 h incubation at 37 °C, 20 µL resazurin 0.01% w/v solution (Invitrogen, Dreieich, Germany) were added to each well, and the plates were maintained at 37 °C for 4 h. Fluorescence was measuring by an Infinite M2000 Proplate reader (Tecan, Crailsheim, Germany) with an excitation wavelength of 544 nm and an emission wavelength of 590 nm. Each experiment was done at least three times with six replicates each. The viability was analyzed in comparison with untreated cells. […] It is a well-established measure to determine the cytotoxic potential of anticancer drugs. The IC50 values were calculated from a calibration curve by linear regression using Microsoft Excel.
(In general: The colour change of resazurin is a common sign of viable cells or microbes.)

Assay [3] concerns the target T2, trypsin-like (T-L) activity of human 20S proteasome (Homo sapiens, UniProt Q99436).
T2 construct: 20S proteasome, isolated and purified from human erythrocytes; purchased Biomol GmbH, Hamburg, Germany; host or cells: human erythrocytes (native complex)
As to the kind of experiment: Inhibition of trypsin-like activity of 20S proteasome (Boc-Leu-Arg-Arg-AMC). As to conditions: for IC50: 10 min, no pre-incubation, 30 °C; for T-L inhibition at 10 µM: over 10 min. In kind it is biochemical. Here is the method:
(§1) 20S proteasome, isolated and purified from human erythrocytes, was obtained from a commercial source (Biomol GmbH, Hamburg, Germany), as well as the peptidic substrates (Bachem, Bubendorf, Switzerland) Suc-Leu-Leu-Val-Tyr-AMC, Boc-Leu-Arg-Arg-AMC and Cbz-Leu-Leu-Glu-AMC for ChT-L, T-L and PGPH (C-L) activity of the enzyme, respectively. The three distinct proteolytic activities of the 20S proteasome were measured by monitoring the hydrolysis of the substrates and detecting the fluorescence of the common product released, i.e., 7-amino-4-methyl coumarin (7-AMC), by means of an Infinite 200 PRO microplate reader (Tecan, Männedorf, Switzerland) at 30 °C with a 380-nm excitation filter and a 460-nm emission filter. All gold and silver complexes were tested against the three proteolytic activities of the 20S proteasome and against Cat-B, Cat-L and bovine pancreatic α-chymotrypsin at 10 µM concentrations over a period of 10 min using an equivalent amount of DMSO as a negative control. […] The IC50 values were calculated with the program GraFit® using the two-parameter equation. More detailed experimental protocols for the assays against each proteolytic activity of the 20S proteasome, as well as against bovine pancreatic α-chymotrypsin, are already reported elsewhere (see also Supplementary Materials). Cat-B and Cat-L were purchased from Calbiochem, Darmstadt, Germany, and the related assays were performed as previously described. The employed fluorogenic substrate for both cysteine proteases was Cbz-Phe-Arg-AMC (80 µM for Cat-B; 5 µM for Cat-L). […]
Inhibition assay for the Tryptic Activity of the 20S Proteasome
mg∙mL−1 with the test compound present at 10 µM (screening assay) or at variable
concentrations (continuous assay). The reaction buffer consisted of 50 mM Tris buffer pH
substrate hydrolysis ([…]) was monitored continuously over a period of 10 min. […]

For assay [4], the target named is T3, peptidyl-glutamyl peptide-hydrolyzing (PGPH or caspase-like C-L) activity of human 20S proteasome (Homo sapiens, UniProt P28072).
T3 construct: 20S proteasome, isolated and purified from human erythrocytes; purchased Biomol GmbH, Hamburg, Germany; host or cells: human erythrocytes (native complex)
Briefly: Inhibition of peptidyl-glutamyl peptide-hydrolyzing activity of 20S proteasome (Cbz-Leu-Leu-Glu-AMC). In kind it is biochemical. The following applies: for PGPH (C-L) inhibition at 10 µM: over 10 min; for IC50: 10 min, no pre-incubation, 30 °C. Here is the method:
as §1
Inhibition assay for the Post-Glutamyl Peptide Hydrolyzing Activity of the 20S
with the test compound present at 10 µM (screening assay) or variable concentrations. The
reaction buffer consisted of 50 mM Tris buffer pH 7.5 containing 25 mM KCl, 10 mM NaCl,
1 mM MgCl2, 0.03% SDS, 5% DMSO. Product release from substrate hydrolysis ([…])
was monitored continuously over a period of 10 min.

The term IC50 denotes the concentration that gives 50% inhibition. Turning to `CC[PH](CC)(CC)[Ag][Br]` [Ag(PEt3)Br], the “Bovine Pancreatic α-Chymotrypsin Inhibition (%) at 10 µM” value in assay [1] is reported as “n.i”. Moreover, the values for the IC50 in assay [2] and in assay [3] were 1.5 ± 0.1 µM and 2.65 ± 0.15 µM, respectively. Moreover, the “PGPH (C-L) inhibition at 10 µM” value in assay [4] is recorded as “n.i”.
As for `CC[PH](CC)(CC)[Ag][Cl]` [Ag(PEt3)Cl], the “Bovine Pancreatic α-Chymotrypsin Inhibition (%) at 10 µM” value in assay [1] is reported as “n.i”. Further, the results for the concentration for half-maximal inhibition (IC50) in assay [2] and in assay [3] were 1.36 ± 0.25 µM and 2.2 ± 1.3 µM, respectively. The “PGPH (C-L) inhibition at 10 µM” value in assay [4] is “n.i”.
Take `CC[PH](CC)(CC)[Ag][I]` [Ag(PEt3)I]: the “Bovine Pancreatic α-Chymotrypsin Inhibition (%) at 10 µM” value in assay [1] is recorded as “n.i”. For the same compound, the IC50 in assay [2] was 1.28 ± 0.12 µM; in assay [3], 2.27 ± 0.78 µM. Moreover, the “PGPH (C-L) inhibition at 10 µM” value in assay [4] is recorded as “n.i”.
Turning to `CCP(CC)CC.[Br][Au]` [Au(PEt3)Br], in assay [1], the “Bovine Pancreatic α-Chymotrypsin Inhibition (%) at 10 µM” value is given as “n.i”. For the same compound, the IC50 was 0.28 ± 0.06 µM in assay [2], 1.26 ± 0.12 µM in assay [3] and greater than 10 µM in assay [4].
Regarding `CCP(CC)CC.[Au+].[Cl-]` [Au(PEt3)Cl], in assay [1], the “Bovine Pancreatic α-Chymotrypsin Inhibition (%) at 10 µM” value is “n.i”. The IC50 is 0.35 ± 0.03 µM in assay [2], 1.25 ± 0.05 µM in assay [3] and greater than 10 µM in assay [4].
Consider `CC[P](CC)(CC)[Au][I]` [Au(PEt3)I], for which, in assay [1], the “Bovine Pancreatic α-Chymotrypsin Inhibition (%) at 10 µM” value is given as “n.i”. Moreover, the half-maximal inhibitory concentration (IC50) in assay [2] is 0.32 ± 0.07 µM; in assay [3], 5.8 ± 0.3 µM; in assay [4], greater than 10 µM.
As for `CCP(CC)CC.CCP(CC)CC.O=[N+]([O-])[O-].[Ag+]` [[Ag(PEt3)2]NO3], the “Bovine Pancreatic α-Chymotrypsin Inhibition (%) at 10 µM” value in assay [1] was “n.i”. The “T-L inhibition at 10 µM” value in assay [3] is “n.i”. For the same compound, the “PGPH (C-L) inhibition at 10 µM” value in assay [4] is on record as “n.i”.
Regarding `CC(=O)OC[C@H]1O[C@@H]([S-])[C@H](OC(C)=O)[C@@H](OC(C)=O)[C@@H]1OC(C)=O.CCP(CC)CC.[Au+]` [auranofin, Auranofin], the “Bovine Pancreatic α-Chymotrypsin Inhibition (%) at 10 µM” value in assay [1] is reported as “n.i. ^a”. Further, in assay [2], it took 0.22 ± 0.08 µM to reach half-maximal inhibition (IC50). Further, the “T-L inhibition at 10 µM” value in assay [3] was “n.i”. Further, the “PGPH (C-L) inhibition at 10 µM” value in assay [4] is on record as “n.i”.
